# From patent publication US20020022266A1, “Localized delivery to a target surface” (priority 2000, published 2002)
# Experiments:
# [1] = test system: rabbit femoral arteries; settings: 10 mM, one minute modification, two-minute perfusion, versus control, FIG. 3
# Source text: (§1) Bovine carotid and rabbit femoral arteries were harvested and placed into a container with DMEM. The arteries were then transferred to a petri dish with DPBS, and excess fat was removed from the vessel exterior with the aid of a scalpel and forceps. The vessel was then filleted with a pair of surgical scissors to expose the luminal surface. The lumen of the bovine vessel was scrape damaged with a spatula to simulate the damage that would occur during a vascular procedure in which plaque is scrapped off. The vessel was utilized without further preparation. The vessels were loaded into a tubular perfusion chamber. The wash medium used was DMEM with a 4.5 g/dl of bovine serum albumin [BSA] (Sigma). A syringe pump (Harvard Apparatus) was used to provide flow and mimic the arterial shear conditions that would be experienced in vivo. Initially, the vessel was perfused for five minutes with the wash medium. At this point, 1 mL of a 10 mM NHS-PEG-Biotin solution was injected into the chamber and incubated with the vessel for modification for one minute. Again, the wash medium was perfused for five minutes. Next, a 10 mL solution of NeutrAvidin-coated microspheres (Molecular Probes) at a concentration of 7.28×10^6 particles/mL was perfused over the modified surface for 2 minutes. The vessel was washed for five minutes one additional time and then removed from the chamber. Finally, the vessel was analyzed by counting the number of microspheres bound per mm^2 of tissue using epi-fluorescence microscopy. This same protocol was repeated for the control, with the vessel being incubated with DPBS alone and not the NHS-PEG-Biotin as described previously.
# [2] = test system: Bovine carotid arteries
# Source text: as §1
substance,measurement,setting,value
NHS-PEG-Biotin,number of microspheres bound per mm^2 of tissue,[1],far greater than the control vessels
same,number of microspheres bound per mm^2 of tissue,"[2]; bovine arteries, 10 mM, one minute modification, two-minute perfusion, versus control, FIG. 2",far greater than the control vessels
same,binding of the microspheres to the modified versus unmodified surfaces (fluorescent micrographs),"[2]; carotid artery segments, 10 mM NHS-PEG-Biotin, one minute, FIGS. 1A and 1B",microspheres have attached
